Peptide text beside a SMILES is read from it.
System: dendritic cells
Assay: Oligolysine induced toxicity to dendritic cells
Format: cell-based
Details: 1.5 μg/mL K20, different time intervals
Experimental: FIGS. 15A and 15B show oligolysine induced toxicity to dendritic cells. FIG. 15A: Freshly harvested dendritic cells were incubated with 1.5 μg/mL K20 for different time intervals. […] FIG. 15B: Confocal image of dendritic cells incubated with oligolysine (K20) peptide-coated, cy5 labeled DNA nanostructure.

Structure (SMILES): NCCCC[C@H](NC(=O)[C@H](CCCCN)NC(=O)[C@H](CCCCN)NC(=O)[C@H](CCCCN)NC(=O)[C@H](CCCCN)NC(=O)[C@H](CCCCN)NC(=O)[C@H](CCCCN)NC(=O)[C@H](CCCCN)NC(=O)[C@H](CCCCN)NC(=O)[C@H](CCCCN)NC(=O)[C@H](CCCCN)NC(=O)[C@H](CCCCN)NC(=O)[C@H](CCCCN)NC(=O)[C@H](CCCCN)NC(=O)[C@H](CCCCN)NC(=O)[C@H](CCCCN)NC(=O)[C@H](CCCCN)NC(=O)[C@H](CCCCN)NC(=O)[C@H](CCCCN)NC(=O)[C@@H](N)CCCCN)C(=O)O [K20] (H-KKKKKKKKKKKKKKKKKKKK-OH)
- appearance of dendritic cells under a microscope: cells appeared healthy

Source: patent US20160271268A1, “NUCLEIC ACID NANOSTRUCTURES FOR IN VIVO AGENT DELIVERY” (DANA-FARBER CANCER INSTITUTE, INC., priority 2013, published 2016)
